Test results published in article PMC4736448, “Optical Control of Insulin Secretion Using an Incretin Switch” (Angewandte Chemie (International Ed. in English), 2015).
Starred links: 1 amine or outer side, 2 acyl side, 3 side chain; linkers in the order of their positions; H or OH if unused. Non-standard residues stand in square brackets, D forms with d. Residues, ends and D or L forms follow the SMILES beside them. X1 = O=C(Cc1cccc(/N=N/c2cccc(CN[*:1])c2)c1)[*:2]; X2 = O=C(Cc1cccc(/N=N\c2cccc(CN[*:1])c2)c1)[*:2]

Tests used:
[1] = cis-trans photoisomerization by UV/Vis spectroscopy; format: physicochemical; settings: UV 330 nm (trans→cis), blue 440 nm (cis→trans), listed as names the isomer
Text: Switching kinetics in response to blue (λ=440 nm; cis→trans) and UV (λ=330 nm; trans→cis) light were robust and fast, with no evidence of degradation or bleaching (Figure 2 b; see Figure S2 and Table S2 in the Supporting Information).

mouse islets = assay: Glucose-stimulated insulin secretion from isolated islets; format: cell-based; settings: 150 nM, 8 mM glucose, n=12 animals; for augmentation of glucose-stimulated insulin secretion: mouse islets, 30 min, dark (trans) or 350 nm light (cis)
Experimental: (§1) All procedures involving primary tissue were regulated by the Home Office […]
(§2) Isolation of rodent islets
(§3) Islets were isolated from 8-12 week old female C57BL6 mice, as previously detailed,[2] and maintained in Roswell Park Memorial Institute (RPMI) medium supplemented with 10% foetal calf serum, 100 U/mL penicillin and 100 µg/mL […]
transilluminator to induce cis-isomerization, or kept in the dark to maintain the trans-isomer. In addition, for HTS Ca2+ assays, λ = 340 ± 10 nm or λ = […] was delivered between acquisitions using the platereader’s inbuilt […]
Batches of six to eight islets were incubated for 30 min in Krebs-HEPES-bicarbonate solution containing in mM: 130 NaCl, 3.6 KCl, 1.5 CaCl2, 0.5 MgSO4, 0.5 NaH2PO4, 2 NaHCO3, 10 HEPES and 0.1% (wt/vol) bovine serum albumin, pH 7.4.[2] Treatments were applied as indicated and photoswitching performed at λ = 340 ± 10 nm using a BMG Fluostar Optima platereader, as above. Insulin concentrations in the supernatant were measured using a Cisbio HTRF assay according to the low-range (sensitive) protocol.
(§4) Non-multifactorial comparisons were made using Student’s t-test. Multifactorial comparisons were made using either one- or two-way ANOVA, or the Kruskal-Wallis test, followed by pairwise comparisons using Bonferonni’s or Dunn’s tests.
(§5) Log-transformed concentration-response curves were fitted using non-linear regression and the Hill equation. All analyses were conducted using Graphpad Prism (Graphpad Software) and IgorPro, and results deemed significant at […]

MIN6 beta cells [2] = assay: cAMP responses in MIN6 beta cells (Cisbio HTRF cAMP assay); format: cell-based; settings: permissive (>8 mM) glucose, n=7 repeats
Experimental: (§6) All procedures involving primary tissue were regulated by the Home Office according to the Animals (Scientific Procedures) Act 1986 of the United Kingdom […]
as §2, §3
Chinese Hamster Ovary (CHO) cells stably expressing the GLP-1R were cultured in Dulbecco's Modified Eagle's Medium (DMEM) supplemented with 10% FBS, 1 x non-essential amino acids, 25 mM HEPES, 100 U/mL penicillin and 100 µg/mL streptomycin. […]
(§7) (live) and 2.5 µM of propidium iodide (dead), and […]/emission detected at λ = 491/525 nm and λ = 561/620 nm, respectively. The area of dead:live cells was calculated as a ratio. Apoptosis was assessed using a DeadEnd Fluorimetric TUNEL System staining kit (Promega).[3] The apoptotic cell mass was calculated as a fraction area versus the total cell mass. […]
(§8) mixture (33 mM glucose + 0.5 mM palmitate) in the presence or absence of compound. Apoptosis was subsequently determined using specific fluorescent immunostaining and a rabbit polyclonal antibody against cleaved caspase 3 (Cell Signaling Technology # 9661; 1:400), before analysis as above. […]
HitHunter No Wash PLUS assay. […] Absorbance/emission were detected at λ = 488/525 nm. […]

MIN6 beta cells [3] = format: cell-based; settings: for signaling pathways engaged (Ca2+ rises with pathway antagonists): MIN6 beta cells, 150 nM, >8 mM glucose, antagonists of Epac2, L-type Ca2+ channels, KATP, IP3R, PKA, n=8 repeats
Experimental: as §1
MIN6 cells (a kind gift from Dr Jun-ichi Miyazaki, Osaka University) […]
HEPES, 0.0005% β-mercaptoethanol 100 U/mL penicillin and 100 µg/mL […]
Multicellular Ca2+ imaging was performed using fluo2 and a Nipkow spinning disk confocal microscope, as detailed.[3] […]
through a 10/0.3 NA objective (EC Plan-Neofluar, Zeiss) using a solid-state laser (Cobalt), and emitted signals captured from λ = 500-550 nm using a Hammamatsu ImageEM EM-CCD camera. Photoswitching was performed using either a λ = 440 nm laser or the epifluorescent port of the microscope configured with a λ = 350 ± 20 nm band-pass filter. Throughout, HEPES-bicarbonate buffer was used, containing in mM: 120 NaCl, 4.8 KCl, 24 NaHCO3, 0.5 Na2HPO4, 5 […]
HEPES, 2.5 CaCl2 and 1.2 MgCl2. […]
High-throughput (HTS) Ca2+ assays were performed using the DiscoverX
HitHunter No Wash PLUS assay. Treatments were automatically delivered at 37 °C using a BMG Labtech NOVOstar platereader and fluorescence intensity read […]
over 30-45 s. […] For all […]
transilluminator to induce cis-isomerization, or kept in the dark to maintain the […]
trans-isomer. […]
as §4, §5

MIN6 beta cells [4] = assay: Apoptosis induced by glucolipotoxicity in MIN6 beta cells (cleaved caspase 3); format: cell-based; settings: 500 nM, 24 h, 33 mM glucose + 0.5 mM palmitate, n=8 repeats
Experimental: MIN6 cells (a kind gift from Dr Jun-ichi Miyazaki, Osaka University) were cultured in DMEM supplemented with 15% FBS, 10 mM glutamine, 20 mM HEPES, 0.0005% β-mercaptoethanol 100 U/mL penicillin and 100 µg/mL […]
Apoptosis was assessed using a DeadEnd Fluorimetric
TUNEL System staining kit (Promega).[3] The apoptotic cell mass was calculated as a fraction area versus the total cell mass. To investigate the pro-survival […]
as §8

[5] = system: pancreatic beta cells within intact islets; assay: Multicellular Ca2+ imaging in intact islets of Langerhans; format: cell-based, mouse; settings: for effect on cytosolic Ca2+ levels / multicellular Ca2+ spiking in islets / Ca2+ rises / beta-cell activity at non-permissive (low) glucose: 150 nM; for effect on cytosolic Ca2+ levels / multicellular Ca2+ spiking in islets: permissive (>8 mM) glucose, blue 440 nm (trans), UV 350 nm (cis); for Ca2+ rises / beta-cell activity at non-permissive (low) glucose: G3, 3 mM glucose, n=5 recordings; for effect of GLP-1R blockade on trans-LirAzo-stimulated Ca2+ oscillations: Exendin 9-39 150 nM, n=9 recordings
Experimental: as §6, §2, §3
Multicellular Ca2+ imaging was performed using fluo2 and a Nipkow spinning disk confocal microscope, as detailed.[3] Briefly, pulsed λ = 491 nm light was delivered through a 10/0.3 NA objective (EC Plan-Neofluar, Zeiss) using a solid-state laser (Cobalt), and emitted signals captured from λ = 500-550 nm using a Hammamatsu ImageEM EM-CCD camera. Photoswitching was performed using either a λ = 440 nm laser or the epifluorescent port of the microscope configured with a λ = 350 ± 20 nm band-pass filter. Throughout, HEPES-bicarbonate buffer was used, containing in mM: 120 NaCl, 4.8 KCl, 24 NaHCO3, 0.5 Na2HPO4, 5 HEPES, 2.5 CaCl2 and 1.2 MgCl2. Compounds and D-glucose were added as […]

islets = assay: Cytotoxicity (dead:live and TUNEL) in islets; format: cell-based, mouse; settings: 11 mM glucose-only; n=8-9 islets
Experimental: as §6, §2, §3
Cytotoxicity and apoptosis assays
as §7

| Molecule | photoswitching kinetics τ1 [1] [s] | photoswitching kinetics τ2 [1] [min] | potentiation of glucose-stimulated insulin secretion (versus G8) (mouse islets) | augmentation of glucose-stimulated insulin secretion (mouse islets) | cAMP concentration response in MIN6 beta cells, cis versus trans (MIN6 beta cells [2]) | Ca2+ fluxes versus control injection (high glucose alone) (MIN6 beta cells [3]; Figure S6) | signaling pathways engaged (Ca2+ rises with pathway antagonists) (MIN6 beta cells [3]) | protection from apoptosis induced by glucolipotoxic insult (MIN6 beta cells [4]) | effect on cytosolic Ca2+ levels / multicellular Ca2+ spiking in islets [5] | protection from apoptosis induced by glucolipotoxic insult (MIN6 beta cells [4]; listed as trans isomer of LirAzo) | Ca2+ rises / beta-cell activity at non-permissive (low) glucose [5] | Ca2+ rises / beta-cell activity at non-permissive (low) glucose ([5]; listed as trans-LirAzo) | islet cell apoptosis under normal conditions (TUNEL) (islets) | effect of GLP-1R blockade on trans-LirAzo-stimulated Ca2+ oscillations [5] | effect of GLP-1R blockade on trans-LirAzo-stimulated Ca2+ oscillations ([5]; listed as Exendin 9-39) |
| --- | --- | --- | --- | --- | --- | --- | --- | --- | --- | --- | --- | --- | --- | --- | --- |
| CC[C@H](C)[C@H](NC(=O)[C@H](Cc1ccccc1)NC(=O)[C@H](CCC(=O)O)NC(=O)[C@H](CCCCN)NC(=O)[C@H](C)NC(=O)[C@H](C)NC(=O)Cc1cccc(/N=N\c2cccc(CNC(=O)[C@H](CCC(=O)O)NC(=O)[C@H](CC(C)C)NC(=O)[C@H](Cc3ccc(O)cc3)NC(=O)[C@H](CO)NC(=O)[C@H](CO)NC(=O)[C@@H](NC(=O)[C@H](CC(=O)O)NC(=O)[C@H](CO)NC(=O)[C@@H](NC(=O)[C@H](Cc3ccccc3)NC(=O)[C@@H](NC(=O)CNC(=O)[C@H](CCC(=O)O)NC(=O)[C@H](C)NC(=O)[C@@H](N)Cc3c[nH]cn3)[C@@H](C)O)[C@@H](C)O)C(C)C)c2)c1)C(=O)N[C@@H](C)C(=O)N[C@@H](Cc1c[nH]c2ccccc12)C(=O)N[C@@H](CC(C)C)C(=O)N[C@H](C(=O)N[C@@H](CCCNC(=N)N)C(=O)NCC(=O)N[C@@H](CCCNC(=N)N)C(=O)NCC(=O)O)C(C)C [cis‐LirAzo] (H-HAEGTFTSDVSSYLE[X2]AAKEFIAWLVRGRG-OH) | 51.0 ± 2.4 | 11.1 ± 4.0 | potentiate | ca. 2.5 fold | significantly left‐shifted, with a higher maximal response | only just above those observed following control injection | signaled via the cAMP binding partners Epac2 and PKA, as well as IP3 | Lira and trans‐LirAzo are more protective than cis‐LirAzo | reduced | – | – | – | – | – | – |
| CC[C@H](C)[C@H](NC(=O)[C@H](Cc1ccccc1)NC(=O)[C@H](CCC(=O)O)NC(=O)[C@H](CCCCN)NC(=O)[C@H](C)NC(=O)[C@H](C)NC(=O)Cc1cccc(/N=N/c2cccc(CNC(=O)[C@H](CCC(=O)O)NC(=O)[C@H](CC(C)C)NC(=O)[C@H](Cc3ccc(O)cc3)NC(=O)[C@H](CO)NC(=O)[C@H](CO)NC(=O)[C@@H](NC(=O)[C@H](CC(=O)O)NC(=O)[C@H](CO)NC(=O)[C@@H](NC(=O)[C@H](Cc3ccccc3)NC(=O)[C@@H](NC(=O)CNC(=O)[C@H](CCC(=O)O)NC(=O)[C@H](C)NC(=O)[C@@H](N)Cc3c[nH]cn3)[C@@H](C)O)[C@@H](C)O)C(C)C)c2)c1)C(=O)N[C@@H](C)C(=O)N[C@@H](Cc1c[nH]c2ccccc12)C(=O)N[C@@H](CC(C)C)C(=O)N[C@H](C(=O)N[C@@H](CCCNC(=N)N)C(=O)NCC(=O)N[C@@H](CCCNC(=N)N)C(=O)NCC(=O)O)C(C)C [trans‐LirAzo] (H-HAEGTFTSDVSSYLE[X1]AAKEFIAWLVRGRG-OH) | 32.3 ± 1.6 | 7.5 ± 3.4 | – | ca. 1.4 fold | – | – | signaled via the cAMP binding partners Epac2 and PKA, as well as IP3 | more protective than cis‐LirAzo | induced increases in the baseline amplitude and frequency of multicellular Ca^2+ spiking | significant protection | unable to stimulate changes in beta‐cell activity | unable | do not induce | – | – |
| exendin 9–39 [reference compound] | – | – | – | – | – | – | – | – | – | – | – | – | – | abolished | abolishes |
